For one experiment, the target named is Cholinesterase (Homo sapiens, UniProt P06276). The experiment in a line: Inhibition of BuChE (unknown origin) using butyrylthiocholine bromide as substrate by Ellman method. A general note: DTNB colorimetry detects thiols as they appear.
For another experiment, the target named is Acetylcholinesterase (Homo sapiens, UniProt P22303). The experiment in a line: Inhibition of AChE (unknown origin) using […] as substrate by Ellman method.

Structures are written as SMILES. Where only a bound is given, the exact number is not on record here.

Chain of Cholinesterase (P06276 whole entry): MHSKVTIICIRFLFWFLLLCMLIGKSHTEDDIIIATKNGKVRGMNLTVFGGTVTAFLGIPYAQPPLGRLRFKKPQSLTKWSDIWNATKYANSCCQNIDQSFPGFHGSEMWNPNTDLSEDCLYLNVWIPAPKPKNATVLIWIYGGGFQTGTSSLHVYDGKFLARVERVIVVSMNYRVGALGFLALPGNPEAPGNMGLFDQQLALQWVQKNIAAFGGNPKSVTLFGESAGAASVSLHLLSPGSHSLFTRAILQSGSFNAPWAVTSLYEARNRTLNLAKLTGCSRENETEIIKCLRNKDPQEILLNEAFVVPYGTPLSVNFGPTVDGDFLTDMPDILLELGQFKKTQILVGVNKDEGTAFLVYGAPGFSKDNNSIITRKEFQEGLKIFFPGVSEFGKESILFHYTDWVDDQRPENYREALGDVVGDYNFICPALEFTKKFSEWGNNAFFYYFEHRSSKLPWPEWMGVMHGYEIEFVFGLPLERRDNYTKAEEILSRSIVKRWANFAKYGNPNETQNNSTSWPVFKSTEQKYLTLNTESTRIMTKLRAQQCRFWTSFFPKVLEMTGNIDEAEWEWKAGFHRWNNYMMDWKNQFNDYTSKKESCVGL
Chain of Acetylcholinesterase (P22303 whole entry): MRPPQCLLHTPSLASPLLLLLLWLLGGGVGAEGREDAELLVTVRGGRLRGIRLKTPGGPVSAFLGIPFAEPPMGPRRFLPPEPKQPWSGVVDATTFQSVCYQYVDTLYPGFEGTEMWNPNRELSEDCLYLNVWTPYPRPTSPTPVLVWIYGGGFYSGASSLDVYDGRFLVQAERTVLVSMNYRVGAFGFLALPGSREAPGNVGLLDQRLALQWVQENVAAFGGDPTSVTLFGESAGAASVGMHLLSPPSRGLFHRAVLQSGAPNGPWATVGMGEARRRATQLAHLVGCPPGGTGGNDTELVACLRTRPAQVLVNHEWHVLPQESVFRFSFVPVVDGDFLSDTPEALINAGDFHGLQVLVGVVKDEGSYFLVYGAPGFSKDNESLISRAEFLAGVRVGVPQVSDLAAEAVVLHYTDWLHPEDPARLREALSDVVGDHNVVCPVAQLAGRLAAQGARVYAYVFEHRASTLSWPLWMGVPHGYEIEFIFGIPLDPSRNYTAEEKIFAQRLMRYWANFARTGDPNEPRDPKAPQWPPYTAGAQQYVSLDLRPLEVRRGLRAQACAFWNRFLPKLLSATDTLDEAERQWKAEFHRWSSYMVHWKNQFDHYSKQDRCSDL

What is called IC50 is the concentration at which inhibition is half-maximal. A higher IC50 goes with weaker potency in that assay. For the molecule `CC(C)Cc1ccc(C(C)C(=O)NS(=O)(=O)c2ccc(N)cc2)cc1` (stereo not given), the IC50 on Cholinesterase was 214 µM; on Acetylcholinesterase, below 600 µM.

With `CC(C)Cc1ccc([C@H](C)C(=O)O)cc1` [(RS)-ibuprofen], the IC50 is below 600 µM against Cholinesterase and 235 µM against Acetylcholinesterase.

With `Nc1ccc(S(N)(=O)=O)cc1` [aromatic sulfonamide compound 5], the IC50 at Cholinesterase is 138 µM.

These data come from BindingDB's records for doi:10.1016/j.bmc.2019.01.012 (University of Education, 2019).
